Holding throughout (format): cell-based
Common to all, as to parameters: expressed in transfected cells

Test [1] addresses T1, hUT (Homo sapiens, UniProt Q9UKP6).
T1 sequence (Q9UKP6 1-389): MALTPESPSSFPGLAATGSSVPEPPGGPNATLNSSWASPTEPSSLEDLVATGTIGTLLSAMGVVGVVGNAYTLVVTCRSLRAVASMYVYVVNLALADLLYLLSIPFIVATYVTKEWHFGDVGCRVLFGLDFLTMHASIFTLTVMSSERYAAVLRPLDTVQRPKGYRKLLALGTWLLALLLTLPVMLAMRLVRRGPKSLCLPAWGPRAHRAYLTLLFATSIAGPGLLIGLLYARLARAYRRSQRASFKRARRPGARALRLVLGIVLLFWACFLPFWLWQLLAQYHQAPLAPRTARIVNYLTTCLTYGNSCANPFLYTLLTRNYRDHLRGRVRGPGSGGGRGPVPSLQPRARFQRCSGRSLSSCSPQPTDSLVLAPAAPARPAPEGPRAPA
Put plainly: ERK1/2 phosphorylation, BRET-based biosensor, HEK 293-hUT cells. Particulars: concentration-response. On the procedure:
HEK 293-hUT cells were grown in DMEM culture media supplemented with 10% foetal bovine serum, HEPES, sodium pyruvate, and G418 (200 μg mL^−1). Passages were performed when cells reached 80% of confluency. Cells were initially plated in 96-well plates at a density of 10,000 cells/well. The following day, the medium is replaced with DMEM culture media supplemented with 2.5% foetal bovine serum (FBS), and 12 h later, cells were transiently transfected with 25 ng/well of a Gq-polycistronic, 25 ng/well of a G12-polycistronic BRET sensor, 25 ng/well of a G13-polycistronic BRET sensor, 2.5 ng/well pIRESB RLucII-ERK-NLS-GFP BRET sensor, 2.5 ng β-arrestin 1-polycistronic BRET sensor, or 2.5 ng β-arrestin 2-polycistronic BRET sensor using Lipofectamine2000 at a ratio of 3:1 (Lipofectamine/plasmid DNA) in serum-free Opti-MEM ([44], [81]). […] Then, to evaluate Gq and G12 activation, 10 μl of a 1/20 dilution (diluted before use) of coelenterazine 400A (stock at 1 mM in ethanol) in Kreb's buffer and 10 μl of the 10× appropriate concentration of peptide were added, and the luminescence was evaluated with an Infinite M1000 PRO. […] Readings were performed after 5 min using an Infinite M1000 PRO. […] BRET ratio was determined by calculating the ratio of the light emitted by GFP10 over the light emitted by the RlucII. […]

For test [2], the target named is T1, hUT. Put plainly: G12 activation, BRET biosensor, HEK 293-hUT cells. On the procedure: (§1) Figure 6 Signaling signature of hUT-pepducins following hUT receptor activation. […] Each curve represents mean ± SEM of at least three independent concentration-response experiments performed in triplicate.
HEK 293-hUT cells were grown in DMEM culture media supplemented with 10% foetal bovine serum, HEPES, sodium pyruvate, and G418 (200 μg mL^−1). Passages were performed when cells reached 80% of confluency. Cells were initially plated in 96-well plates at a density of 10,000 cells/well. […] Then, to evaluate Gq and G12 activation, 10 μl of a 1/20 dilution (diluted before use) of coelenterazine 400A (stock at 1 mM in ethanol) in Kreb's buffer and 10 μl of the 10× appropriate concentration of peptide were added, and the luminescence was evaluated with an Infinite M1000 PRO. […] Readings were performed after 5 min using an Infinite M1000 PRO. […] BRET ratio was determined by calculating the ratio of the light emitted by GFP10 over the light emitted by the RlucII.
A general note: In BRET a luciferase serves as donor, and the signal depends on an acceptor being close.

Test [3] addresses T1, hUT. Put plainly: β-arrestin 2 conformational change, BRET biosensor, HEK 293-hUT cells. The note with it: 15 min at RT. On the procedure:
as §1
HEK 293-hUT cells were grown in DMEM culture media supplemented with 10% foetal bovine serum, HEPES, sodium pyruvate, and G418 (200 μg mL^−1). Passages were performed when cells reached 80% of confluency. Cells were initially plated in 96-well plates at a density of 10,000 cells/well. The following day, the medium is replaced with DMEM culture media supplemented with 2.5% foetal bovine serum (FBS), and 12 h later, cells were transiently transfected with 25 ng/well of a Gq-polycistronic, 25 ng/well of a G12-polycistronic BRET sensor, 25 ng/well of a G13-polycistronic BRET sensor, 2.5 ng/well pIRESB RLucII-ERK-NLS-GFP BRET sensor, 2.5 ng β-arrestin 1-polycistronic BRET sensor, or 2.5 ng β-arrestin 2-polycistronic BRET sensor using Lipofectamine2000 at a ratio of 3:1 (Lipofectamine/plasmid DNA) in serum-free Opti-MEM ([44], [81]). Sixteen hours posttransfection, medium was replaced with DMEM supplemented with 10% FBS, HEPES, sodium pyruvate and G418 (200 μg mL^−1) and cell growth was resumed for another 16 h. Cells were washed with 150 μl PBS solution supplemented with 0.1% of glucose and then incubated with 80 μl of this solution for 2 h. Then, to evaluate Gq and G12 activation, 10 μl of a 1/20 dilution (diluted before use) of coelenterazine 400A (stock at 1 mM in ethanol) in Kreb's buffer and 10 μl of the 10× appropriate concentration of peptide were added, and the luminescence was evaluated with an Infinite M1000 PRO. […] Readings were performed after 5 min using an Infinite M1000 PRO. Filters were set at 410 nm and 515 nm for detecting the Renilla luciferase II (RlucII, donor) and green fluorescent protein 10 (GFP10, acceptor) light emission, respectively. BRET ratio was determined by calculating the ratio of the light emitted by GFP10 over the light emitted by the RlucII.

“Also recorded” adds a separate entry of the source. Peptide text beside a SMILES is read from it. * marks the point of attachment. Palmitoyl = CCCCCCCCCCCCCCCC(=O)*

On to `CCCCCCCCCCCCCCCC(=O)N[C@@H](Cc1c[nH]c2ccccc12)C(=O)N[C@@H](CC(C)C)C(=O)N[C@@H](CO)C(=O)N[C@@H](CCC(N)=O)C(=O)N[C@@H](CCCNC(=N)N)C(=O)N[C@@H](C)C(=O)N[C@@H](CO)C(=O)N[C@@H](Cc1ccccc1)C(=O)N[C@@H](CCCCN)C(=O)N[C@@H](CCCNC(=N)N)C(=O)N[C@@H](C)C(=O)N[C@@H](CCCNC(=N)N)C(=O)N[C@@H](CCCNC(=N)N)C(N)=O` [[Trp^1, Leu^2]hUT-Pep3] (Palmitoyl-WLSQRASFKRARR-NH2), for which, at hUT [1], the “ERK1/2 phosphorylation (BRET) versus hUII” value was “lower potency and efficacy than hUII”. Also, on hUT [2] (read-out: G12 activation, maximum efficacy at 10^−6 M), the Emax at 1 µM worked out at 5%. In addition, the EC50 on hUT [3] (mean ± SEM, n = 3–5, read-out: β-arrestin 2 pEC50 (converted)) is 18.2 nM. The compound further registered an Emax on hUT [3] (percentage of the activation induced by hUII (10^−6 M), mean ± SEM, n = 3–5) of 19 ± 3%.

`CC(C)[C@H](NC(=O)[C@@H]1CSSC[C@H](NC(=O)[C@H](CC(=O)O)NC(=O)[C@@H]2CCCN2C(=O)[C@@H](NC(=O)[C@@H](N)CCC(=O)O)[C@@H](C)O)C(=O)N[C@@H](Cc2ccccc2)C(=O)N[C@@H](Cc2c[nH]c3ccccc23)C(=O)N[C@@H](CCCCN)C(=O)N[C@@H](Cc2ccc(O)cc2)C(=O)N1)C(=O)O` [hUII, urotensin II, reference compound]: the Emax at 1 µM on hUT [2] (read-out: G12 activation Emax) worked out at 98 ± 3%.

`CCCCCCCCCCCCCCCC(=O)N[C@@H](CCCNC(=N)N)C(=O)N1CCC[C@H]1C(=O)N[C@@H](CC(C)C)C(=O)N[C@@H](CC(=O)O)C(=O)N[C@H](C(=O)N[C@H](C(=O)N[C@@H](CCC(N)=O)C(=O)N[C@@H](CCCNC(=N)N)C(=O)N1CCC[C@H]1C(=O)N[C@@H](CCCCN)C(=O)NCC(=O)N[C@@H](Cc1ccc(O)cc1)C(N)=O)C(C)C)[C@@H](C)O` [hUT-Pep2] (Palmitoyl-RPLDTVQRPKGY-NH2): the “ERK1/2 phosphorylation (BRET) versus hUII” value on hUT [1] is “lower potency and efficacy than hUII; also recorded: partial agonist”. At hUT [3] (at 10^−6 M, percentage of the activation induced by hUII (10^−6 M), read-out: β-arrestin 2, maximum efficacy at 10^−6 M), the Emax at 1 µM was about 15%.

Values taken from paper PMC8424217 (The Journal of Biological Chemistry, 2021).
